# What was measured:
# CL-K1 [1] = target: T1, CL-K1 (Homo sapiens, UniProt Q9BWP8); test: Glycan-array screen with fluorophore-labelled CL-K1; assay type: binding; set-up: For full-length protein, the cDNA was cloned into the polylinker region of expression vector pED; made in house; host or cells: Chinese hamster ovary cells; settings: for relative fluorescence, With Ca^2+ / relative fluorescence, Without Ca^2+: glycan array, ± SE from six replicates; for relative fluorescence, With Ca^2+: CL-K1 200 μg/ml; for relative fluorescence, With Ca^2+ / glycan-array binding by CL-K1: with Ca2+; for relative fluorescence, Without Ca^2+: without Ca2+
# Description: To examine binding to individual glycans, fluorophore-labelled CL-K1 was used to probe a broad screen of mammalian carbohydrates using the Core H Glycan array technology facility at The Consortium for Functional Glycomics. […] The relative fluorescence signal provides an accurate indication of the order of affinities. Consistent with the glycoprotein data, the best ligands were all high-mannose oligosaccharides (Figure 2A and Additional file 1), but not all of these were recognised. Mammalian high-mannose structures comprise a Man5 core attached to the protein via two GlcNAc residues, with α1-2 linked sugars at the non-reducing termini (Figure 2C). CL-K1 only recognised those structures containing at least one terminal Man(α1-2)Man epitope. For example, it bound tightly to Man6, Man7, Man8 and Man9 but not to the Man5 core (ligand 310) that comprises only α1-3 and α1-6 linkages. […] This pattern of recognition is different from other collectins, such as MBL and pulmonary-surfactant protein D that typically recognise the terminal sugar alone (mannose, fucose or N-acetyglucosamine). It is also different from other C-type lectins, such as DC-SIGN or DC-SIGNR that target larger high-mannose oligosaccharides preferentially (Man5 to Man9). To quantify the differences in affinities, we compared binding to three different epitopes that all form part of a high-mannose oligosaccharide. […] Thus, CL-K1 primarily recognises the terminal disaccharide of the glycan, rather than the terminal sugar alone, explaining its unusual binding properties.
# Labelled protein (70 μL) was applied to the printed surface of the microarray chip coated with natural and synthetic glycans via amino linkers. The chip was covered and incubated at room temperature in a humidified chamber for one hour. Binding was detected by measuring the fluorescence associated with each glycan. Data are the average of six replicates.
# Target sequence in this assay (Q9BWP8 26-271): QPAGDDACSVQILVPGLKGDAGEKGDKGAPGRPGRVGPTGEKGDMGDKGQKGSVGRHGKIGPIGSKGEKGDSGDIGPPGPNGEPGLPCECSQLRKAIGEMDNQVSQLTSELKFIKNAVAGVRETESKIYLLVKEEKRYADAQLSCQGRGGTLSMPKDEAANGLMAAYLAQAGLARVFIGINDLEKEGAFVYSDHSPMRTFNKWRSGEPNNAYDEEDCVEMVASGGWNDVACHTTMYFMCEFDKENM
# CL-K1 [2] = target: T1, CL-K1; test: Inhibition of CL-K1 binding to immobilized yeast invertase by high-mannose epitopes; set-up: For full-length protein, the cDNA was cloned into the polylinker region of expression vector pED; made in house; host or cells: Chinese hamster ovary cells; settings: relative to Man(α1-2)Man IC50 of 0.02 mM
# Target sequence in this assay (Q9BWP8 26-271): as above
# [3] = system: Chinese hamster ovary cells; test: Secretion of wild type and variant CL-K1s from mammalian cells (immunoblot of medium); assay type: cell-based; settings: transfected CHO cells, serum-free medium, anti-CL-K1 immunoblot
# Description: Figure 5 No secretion of variant CL-K1s containing mutations associated with 3MC syndrome. A) Structure of the CRD of CL-K1 showing the position of mutations associated with 3MC syndrome. Secondary structure features are labelled based on the structure of MBL [38]. Polar interactions are indicated by dotted lines. B) Secretion of wild type and variant CL-K1s from mammalian cells. […] Secreted CL-K1 was detected using rabbit polyclonal anti-CL-K1 antibodies. Purified wild-type CL-K1 (approximately 20 ng) was used as a positive control. CL-K1, collectin-K1; CRD, carbohydrate-recognition domain; MBL, mannan-bindng lectin; 3MC, Carnevale, Mingarelli, Malpuech and Michels.
# For full-length protein, the cDNA was cloned into the polylinker region of expression vector pED [29] and protein was produced in Chinese hamster ovary cells and purified by affinity chromatography on mannose-Sepharose columns as described previously for MBL [28, 30]. […] Cells were grown in Power Prime broth (Molecular Dimensions Limited (Newmarket, UK)), induced during mid-log phase with IPTG (1 mM), and harvested after growth at 37°C for an additional 16 hours.
# yeast invertase = test: Binding of biotinylated invertase to full length CL-K1 and trimeric fragments; settings: plates coated with CL-K1 protein
# Description: Figure 6 Characterisation of CL-K1 fragments containing disease-associated mutations. […] The elution positions of conalbumin (75 kDa), ovalbumin (44 kDa) and ribonuclease A (13.7 kDa) are indicated. […] Bottom, None of the three CL-K1 variants interacts with the column, even in the presence of Ca^2+. B) CD spectra of the wild-type CL-K1 fragment and the disease-associated CL-K1 variants. […] Values are the mean ± error from duplicate measurements. Tighter binding of the full-length protein is due to its increased avidity. CL-K1, collectin-K1; EDTA, ethylenediaminetetraacetic acid.
# After washing, wells were incubated with 1:2000 dilution of goat peroxidase conjugated anti-biotin antibody (Sigma) and developed with tetramethylbenzidine (Sigma). Absorbance was measured at 450 nm.
# complement component C3b = test: Complement activation: C3b deposition on mannan in lectin-depleted human serum; assay type: biochemical; settings: 1/100 human serum depleted of endogenous lectins
# Experimental: (§1) Figure 1 Glycoprotein binding and complement activation by CL-K1. A) Immunoblot of CL-K1 binding to immobilised mammalian and yeast glycoproteins. B) Surface plasmon resonance of CL-K1 binding to glycoproteins. […] C3b and its breakdown products were detected by absorbance using an anti-human C3c antibody with alkaline phosphatase-conjugated goat anti-rabbit secondary antibody and p-nitrophenyl phosphate as the substrate. Protein concentrations were calculated based on the molecular masses of CL-K1 and MBL trimers (78 kDa in each case). CL-K1, collectin-K1; MBL, mannan-binding lectin.
# After incubation at 37°C for one hour and washes with buffer containing 0.5% Tween-20, C3b was detected using rabbit anti-human C3c antibody (Dako UK Ltd (Ely, UK)) with alkaline phosphatase-conjugated goat anti-rabbit secondary antibody (Sigma) and p-nitrophenyl phosphate as the substrate.
# CL-K1 [4] = target: T1, CL-K1; test: Immunoblot of CL-K1 binding to immobilised glycoproteins; set-up: For full-length protein, the cDNA was cloned into the polylinker region of expression vector pED; made in house; host or cells: Chinese hamster ovary cells; settings: biotinylated CL-K1 0.06 mg/ml, glycoproteins spotted on nitrocellulose
# Experimental: as §1
# Target sequence in this assay (Q9BWP8 26-271): as above
# Two-fold serial dilutions of glycoprotein (0.5 μl at a starting concentration of 2 mg/ml) were spotted on to a nitrocellulose membrane and allowed to dry for 30 minutes at room temperature. […] After washing, the membrane was incubated with Streptavidin-ALP conjugate (2ug/ml; Life Technologies Ltd (Paisley, UK)) and developed with BCIP-NBT substrate (Sigma).
# CL-K1 [5] = target: T1, CL-K1; test: Surface plasmon resonance of CL-K1 binding to glycoproteins; set-up: For full-length protein, the cDNA was cloned into the polylinker region of expression vector pED; made in house; host or cells: Chinese hamster ovary cells; settings: glycoprotein starting concentration 200 nM
# Experimental: as §1
# Target sequence in this assay (Q9BWP8 26-271): as above
# CL-K1 was immobilised on the surface of a GLM sensor chip (Bio-Rad Laboratories Ltd (Hemel Hempstead, UK)) by amine coupling. Binding was measured in 10 mM Tris–HCl, pH 7.4 containing 140 mM NaCl, 2 mM CaCl2 and 0.005% Tween 20 at a flow rate of 25 μl/minute and at 25°C. The protein surface was regenerated in buffer containing 1 M NaCl and 5 mM EDTA.
# CL-K1 fragment = target: T2, CL-K1 fragment (Homo sapiens, UniProt Q9BWP8); test: Ca2+ binding to the CL-K1 fragment measured by intrinsic fluorescence
# T2 construct: made in house
# T2 sequence (Q9BWP8 116-271): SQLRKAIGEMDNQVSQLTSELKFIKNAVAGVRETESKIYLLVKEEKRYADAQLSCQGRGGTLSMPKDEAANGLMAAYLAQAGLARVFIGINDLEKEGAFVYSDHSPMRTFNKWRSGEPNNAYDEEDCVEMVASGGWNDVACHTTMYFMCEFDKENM
# Experimental: (§2) Figure 4 Ca^2+ stabilises the CRDs of CL-K1. A) Fluorescence spectra of the CL-K1 fragment in different buffers. The λex was 280 nm. B) Ca^2+ binding to the CL-K1 fragment measured by fluorescence. […] C) Urea denaturation in the presence and absence of Ca^2+ (2 mM). […] Samples were separated by SDS-PAGE and gels were scanned to determine the amount of CL-K1 remaining. The amount of trypsin was 0.5% (w/w). The intensities of bands corresponding to the neck and CRD and the CRD alone were combined. A sample gel is shown in F). E) Proteolysis of CL-K1 in the presence and absence of Ca^2+. Two fold serial dilutions of trypsin were used at a starting concentration of 2% (w/w). In all experiments data are mean ± error from two separate experiments. CL-K1, collectin-K1; CRD, carbohydrate-recognition domain.
# All experiments were carried out using a Fluoromax-4 (Horiba Jobin Yvon, Horiba UK Ltd (Middlesex, UK)) instrument with excitation wavelength at 280 nm, slit widths of 2 nm and emission wavelength range of 300 to 400 nm. The λex was 280 nm. Protein samples (0.5 μM) in 10 mM Tris–HCl, pH 7.4 containing 140 mM NaCl were measured in the presence of 2 mM CaCl2, 1 mM EDTA and 6 M urea.
# CL-K1 [6] = target: T1, CL-K1; test: Proteolysis of CL-K1 by trypsin at increasing Ca2+ concentrations; assay type: binding; set-up: made in house; settings: trypsin 0.5% (w/w), read-out: apparent KD for calcium
# Experimental: as §2
# Target sequence in this assay (Q9BWP8 116-271): as above
Compound,"relative fluorescence, With Ca^2+ (CL-K1 [1])","relative fluorescence, Without Ca^2+ (CL-K1 [1])",further results
CC1OC(O)C(O)C(O)C1O (stereo not shown) [compound 11],546 ± 98,1922 ± 358,
OC[C@H]1OC(O)[C@@H](O)[C@@H](O)[C@@H]1O (stereo partly shown) [mannose],,,fold by which inhibition by Man(α1-2)Man is greater than for this ligand (CL-K1 [2]): > 300 fold
OC[C@H]1O[C@H](O)[C@H](O)[C@@H](O)[C@H]1O [compound 6],294 ± 167,870 ± 157,
CL-K1: full-length recombinant human collectin-K1 produced in Chinese hamster ovary cells,,,"secretion into medium [3]: secreted; binding to yeast invertase (yeast invertase): bound; complement activation, fold lower activity than human MBL (complement component C3b): 2.5 fold"
OC[C@H]1O[C@H](O)[C@H](O)[C@@H](O)[C@@H]1O [compound 7],250 ± 80,952 ± 297,
Invertase: yeast invertase glycoprotein from Sigma-Aldrich,,,binding of CL-K1 on blot (CL-K1 [4]): binding; binding to CL-K1 by surface plasmon resonance (CL-K1 [5]): bound tightly
OC[C@H]1O[C@@H](O)[C@H](O)[C@@H](O)[C@@H]1O [compound 17],831 ± 505,4473 ± 1785,
"NCCCCCO[C@H]1O[C@H](CO[C@H]2O[C@H](CO[C@H]3O[C@H](CO)[C@@H](O)[C@H](O)[C@@H]3O[C@H]3O[C@H](CO)[C@@H](O)[C@H](O)[C@@H]3O)[C@@H](O)[C@H](O[C@H]3O[C@H](CO)[C@@H](O)[C@H](O)[C@@H]3O[C@H]3O[C@H](CO)[C@@H](O)[C@H](O)[C@@H]3O)[C@@H]2O)[C@@H](O)[C@H](O[C@H]2O[C@H](CO)[C@@H](O)[C@H](O)[C@@H]2O[C@H]2O[C@H](CO)[C@@H](O)[C@H](O)[C@@H]2O[C@H]2O[C@H](CO)[C@@H](O)[C@H](O)[C@@H]2O)[C@@H]1O [ligand 312, Manα1-2Manα1-2Manα1-3(Manα1-2Manα1-6(Manα1-2Manα1-3)Manα1-6)Manα-Sp9]",,,glycan-array binding by CL-K1 (CL-K1 [1]): bound tightly
Mannan,,,binding of CL-K1 on blot (CL-K1 [4]): binding; binding to CL-K1 by surface plasmon resonance (CL-K1 [5]): bound tightly
CC(=O)N[C@@H]1[C@@H](O)[C@H](O)[C@@H](CO)O[C@H]1O [compound 21],499 ± 293,1798 ± 141,
OC[C@H]1O[C@@H](O)[C@@H](O)[C@@H](O)[C@@H]1O [compound 18],99 ± 9,570 ± 170,
CC1OC(O)C(O)C(O)C1O (stereo not shown) [compound 10],431 ± 27,1097 ± 138,
fetuin: Bovine fetuin from Sigma-Aldrich,,,binding of CL-K1 on blot (CL-K1 [4]): not
thyroglobulin: Bovine thyroglobulin from GE Healthcare,,,binding of CL-K1 on blot (CL-K1 [4]): binding
OC[C@H]1O[C@H](O)[C@@H](O)[C@@H](O)[C@@H]1O [compound 8],566 ± 230,1156 ± 233,
CC(=O)N[C@@H]1[C@@H](O)[C@H](O)[C@@H](CO)O[C@H]1O [compound 20],170 ± 91,535 ± 116,
OCC1OC(OCC2OC(OCC3OC(O)C(O)C(OC4OC(CO)C(O)C(O)C4O)C3O)C(O)C(OC3OC(CO)C(O)C(O)C3O)C2O)C(O)C(O)C1O (stereo not shown) [compound 310],1000 ± 468,768 ± 303,glycan-array binding by CL-K1 (CL-K1 [1]): not
[Ca+2] [Ca^2+],,,"Kd (CL-K1 fragment; read-out: KD for Ca2+ by titration): 430 µM; Hill coefficient of Ca2+ binding (CL-K1 fragment; trimeric neck+CRD fragment, intrinsic fluorescence): 2.4; Kd (CL-K1 [6]): ~1000 µM"
OC[C@H]1O[C@@H](O)[C@H](O)[C@@H](O)[C@H]1O [compound 16],941 ± 308,4062 ± 774,

# From paper PMC4431178, “Molecular basis of sugar recognition by collectin-K1 and the effects of mutations associated with 3MC syndrome” (BMC Biology, 2015)
